Test results as given in US7314864B1, “Humanin, a polypeptide suppressing neuronal death” (Keio University, priority 1999, dated 2008).
“Also recorded” adds a separate entry of the source. No end group written: not given here.

Tests used:
[1] = tested on: F11 cells transfected with FAD genes (V642I APP, NL-APP, M146L PS-1, N141I PS-2); experiment: FAD gene-induced F11 cell death, trypan blue exclusion assay; type: cell-based, rat/mouse hybrid; conditions: for concentration giving complete antagonism/rescue of neuronal death: all four types of FAD genes
Experimental: (§1) F11 cells (Platika, D. et al. (1985) Proc. Natl. Acad. Sci. U.S.A. 82, 3499-3503; Yamatsuji, T. et al. (1996) Science 272, 1349-1352) were cultured in HamF-12 media containing 18% fetal bovine serum (FBS) and antibiotics. 7×10^4/well of F11 cells were seeded into a 6-well plate; cultured in HamF-12 containing 18% FBS for 12 to 16 hours; transfected 3 hours with plasmids encoding FAD genes and plasmids encoding HN (pHN, and such) by lipofection in the absence of serum (1 μg of FAD cDNA expression plasmid, 1 μg of HN cDNA expression plasmid, 4 μl of LipofectAMINE, 8 μl of Plus reagent); and then, were cultured for 2 hours in HamF-12 media containing 18% FBS. Then, culture media were exchanged with HamF-12 media containing 10% FBS; and the cells were cultured for additional 67 hours. 72 hours after transfection, cell death was measured by trypan blue exclusion assay. Experiments using synthetic HN polypeptides were conducted as follows: F11 cells (at 7×10^4/well in a 6-well plate) were transfected 3 hours with FAD genes in the absence of serum, as mentioned above; after cultivation for 2 hours in HamF-12 media containing 18% FBS, the cells were cultured for 67 hours in HamF-12 media containing 10% FBS with various concentrations of HN polypeptides; and cell death was measured by trypan blue exclusion assay. ALS-associated mutant cDNAs of SOD1 were also similarly transfected, and examined for their neurotoxicity.
(§2) Trypan blue exclusion assay was performed as follows. Without prewashing, the cells were suspended with gentle pipetting into a serum-free media. 50 μl of 0.4% trypan blue solution (Sigma, Cat. #T-8154) were added (final concentration of 0.08%) to 200 μl cell suspension, and the suspension was mixed at room temperature. Within 3 minutes of the trypan blue solution addition, stained cells were counted. Cell mortality was determined [100-cell survival rate (%)] based on the stained cell count. LDH assay was performed using a kit (LDH-Cytotoxic Test; Wako Pure Chemical Industries, Cat. #299-50601) by sampling 6 μl of media in which neurons were cultured. Calcein staining was performed as described in literature (Bozyczko-Coyne, D. et al. (1993) Journal of Neuroscience Methods 50, 205-216). Specifically, 6 μM Calcein-AM (3′, 6′-Di-(O-acetyl)-2′-7′-bis[N,N-bis(carboxymethyl)aminomethyl]fluorescein, tetraacetoxymethyl ester; Dojindo, Cat. #349-07201) was added to the neurons; and 30 minutes or longer after Calcein-AM treatment, fluorescence (ex=490 nm, em=515 nm) was observed by fluorescence microscopy, and measured by a spectrometer. Specific fluorescence was calculated by subtracting basal fluorescence from total fluorescence. Basal fluorescence was assigned to be the value calculated from linear trypan blue positivity-fluorescence intensity relationship, corresponding to 100% trypan blue positivity.

[2] = tested on: F11 cells transfected with V642I APP cDNA; experiment: V642I APP-induced F11 cell death, trypan blue exclusion assay; type: cell-based
Experimental: as §1, §2

[3] = tested on: primary cultured cortical neurons treated with Aβ1-43; experiment: Aβ1-43-induced cell death of primary cultured cortical neurons, trypan blue exclusion assay; type: cell-based; conditions: for effect on Aβ1-43-induced cell death: 25 μM Aβ1-43, confirmed by LDH release and Calcein staining
Experimental: Primary culture of mouse cortical neurons was performed in poly-D-lysine-coated 24-well plates (Sumitomo Bakelite) in the absence of serum and in the presence of N2 supplement, as described in literature (Ecksioglu, Y. Z. et al. (1994) Brain Res. 644, 282-90). The purity of neurons prepared according to the method was >98%. The prepared neurons (1.25×10^5/well, 250 μl media/well) were preincubated in the absence or presence of 10 nM or 10 μM sHN polypeptides for 16 hours; and were treated with 25 μM Aβ1-43 in the absence or presence of sHN polypeptides at the same concentrations for 24 to 72 hours. Since primary cultured neurons are damaged even by temporary dryness during medium exchange, treatment of the cells by Aβ1-43 was performed as follows. First, half of the volume of the old medium (125 μl) was discarded. Then, 125 μl of pre-warmed fresh medium containing 50 μM Aβ1-43 and sHN with a concentration indicated above were added to the culture.
as §2

[4] = tested on: F11/EcR cells transfected with ecdysone-inducible Q79 plasmid; experiment: Polyglutamine Q79-induced F11/EcR cell death (ecdysone-inducible), trypan blue exclusion assay; type: cell-based; conditions: 1 μM polypeptide, 72 hours
Experimental: F11/EcR cell experiment using ecdysone was conducted as follows: F11/EcR cells were seeded at 7×10^4/well into a 6-well plate; cultured for 12 to 16 hours in HamF-12 media containing 18% FBS; and were similarly transfected in the absence of serum for 3 hours with 1 μg of ecdysone-inducible plasmid alone, or with 1 μg of HN-encoding plasmid, as mentioned above. After culturing for 12 to 16 hours in HamF-12 media containing 18% FBS, the cells were cultured for 2 hours in HamF-12 media containing 10% FBS, then ecdysone (Ponasterone) was added to the media (final concentration of 40 μM). Cell death was measured 72 hours after ecdysone treatment. Experiments using synthetic HN polypeptides were conducted as follows: cells were similarly transfected for 3 hours with FAD genes in the absence of serum; cultured for 12 to 16 hours in HamF-12 media containing 18% FBS; cultured for 2 hours in HamF-12 media containing 10% FBS and various concentrations of HN polypeptide; and then, 40 μM Ponasterone was added to the media. Cell death was measured by trypan blue exclusion assay after 72 hours from the ecdysone treatment. HD/SCA-associated Q79 cDNAs were also similarly transfected, and the neurotoxicity was tested.
(§3) Trypan blue exclusion assay was performed as follows. […] Within 3 minutes of the trypan blue solution addition, stained cells were counted. Cell mortality was determined [100-cell survival rate (%)] based on the stained cell count. […] Specifically, 6 μM Calcein-AM (3′, 6′-Di-(O-acetyl)-2′-7′-bis[N,N-bis(carboxymethyl)aminomethyl]fluorescein, tetraacetoxymethyl ester; Dojindo, Cat. #349-07201) was added to the neurons; and 30 minutes or longer after Calcein-AM treatment, fluorescence (ex=490 nm, em=515 nm) was observed by fluorescence microscopy, and measured by a spectrometer. Specific fluorescence was calculated by subtracting basal fluorescence from total fluorescence. Basal fluorescence was assigned to be the value calculated from linear trypan blue positivity-fluorescence intensity relationship, corresponding to 100% trypan blue positivity.

[5] = tested on: F11 cells transfected with SOD1 mutants (A4T, G85R, G93A); experiment: ALS-associated SOD1 mutant-induced F11 cell death, trypan blue exclusion assay; type: cell-based, rat/mouse hybrid; conditions: 100 μM polypeptide
Experimental: as §1
as §3, with “Basal fluorescence was assigned to be the value calculated from linear trypan blue positivity-fluorescence intensity relationship, corresponding to 100% trypan blue positivity.” left out

Substance: HN-17: 17 amino acids from Pro3 to Pro19 of Humanin (PRGFSCLLLLTSEIDLP; artificially synthesized sequence (deltaN2 deltaC5-Humanin; HN-17 ))
- antagonizing activity on FAD gene-induced cell death ([1]; 10 μM polypeptide, four FAD genes): sufficient antagonizing activity
- activity to suppress cell death compared to the original HN ([1]; M146L PS-1): slightly lower activity
- concentration showing sufficient protective action ([1]; any of the four FAD genes, dose-response): low μM

Substance: MAPRGFSCLLLLTGEIDLPVKRRA [sHNG]
- IC50 ([2]; 72 h): ~0.1 nM
- concentration giving complete antagonizing effect on V642I APP-induced cell death ([2]; synthetic polypeptide, 72 hours): ≤ 10 nM
- concentration showing significant or sufficient neuroprotective action [1]: about 1 nM
- concentration giving complete suppression of cell death ([1]; NL-APP, M146L PS-1, N141I PS-2): ≤ 10 nM
- concentration giving complete antagonism/rescue of neuronal death [1]: ≤ 10 nM
- effect on Aβ1-43-induced cell death ([3]; 10 nM polypeptide): completely protected
- effect on Q79-induced cell death, synthetic polypeptide [4]: Extensive cell death
- effect on SOD1 mutant-induced cell death, synthetic polypeptide [5]: couldn't be suppressed

Substance: AGA-HNG: HNG (S14G HN) mutated at two positions, R4A/F6A (MAPAGASCLLLLTGEIDLPVKRRA; artificially synthesized sequence (AGA-HN))
- concentration showing significant or sufficient neuroprotective action [1]: about 1 nM
- concentration giving complete antagonism/rescue of neuronal death [1]: 0.1 nM
- neuroprotective activity relative to HNG ([1]; all types of cell death (FAD genes, Aβ)): higher rescue activity compared to HNG; also recorded: several folds higher
- concentration giving complete rescue of cell death by Aβ ([3]; 25 μM Aβ1-43, 72 hours): 0.3 nM

Substance: PRGFSCLLLLTGEIDLP [HNG-17]
- suppression of FAD gene-induced cell death ([1]; 10 nM polypeptide): completely antagonize
- cell mortality ([3]; 25 μM Aβ1-43, 72 hours, 10 nM polypeptide, mean ±S.D.): 28.8±2.3%
- effect on Aβ1-43-induced cell death ([3]; 10 nM polypeptide): completely antagonize

Substance: MAPRGFSCRLLLTSEIDLPVKRRA [sHNR]
- cell mortality (%) ([2]; V642I APP cDNA, treated with 10 μM sHN polypeptides, 72 hours, mean ±S.D.): 17.7 ± 2.2 %
